Among the data in ChEMBL document CHEMBL4619704, “Structural determinants of affinity and selectivity in the binding of inhibitors to histone deacetylase 6” (Bioorg Med Chem Lett, 2020) are IC50 values, retold here.

Usually IC50 stands for the midpoint of a concentration-inhibition curve.

In test [1] the target is T1, Histone deacetylase 1 (Homo sapiens, UniProt Q13547). Description: Inhibition of C-terminal Flag-tagged HDAC1 (unknown origin) expressed in HEK293 cells or Sf21 cells using Ac-RHK(Ac)K(Ac)-AMC peptide as substrate measured after 180 mins by fluorescence based assay.
T1 sequence (Q13547 whole entry): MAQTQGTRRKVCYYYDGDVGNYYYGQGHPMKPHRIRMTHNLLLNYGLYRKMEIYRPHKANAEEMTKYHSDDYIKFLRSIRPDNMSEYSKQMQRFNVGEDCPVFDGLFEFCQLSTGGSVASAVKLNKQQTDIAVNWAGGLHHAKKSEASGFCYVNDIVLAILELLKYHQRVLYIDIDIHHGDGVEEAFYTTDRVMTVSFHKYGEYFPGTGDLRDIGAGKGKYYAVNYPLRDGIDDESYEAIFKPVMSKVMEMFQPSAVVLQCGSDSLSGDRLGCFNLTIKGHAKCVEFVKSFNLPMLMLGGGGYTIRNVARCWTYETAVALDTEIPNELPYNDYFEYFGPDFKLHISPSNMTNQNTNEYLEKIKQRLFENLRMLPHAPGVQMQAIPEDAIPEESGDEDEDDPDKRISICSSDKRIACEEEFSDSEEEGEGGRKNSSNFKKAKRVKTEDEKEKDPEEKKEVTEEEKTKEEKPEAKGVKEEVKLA
In test [2] the target is T1, Histone deacetylase 1. Description: Inhibition of C-terminal Flag-tagged HDAC1 (unknown origin) expressed in HEK293 cells or Sf21 cells using Ac-NH-GGK(Ac)-AMC peptide as substrate measured after 180 mins by fluorescence based assay.
Test [3] concerns the target T1, Histone deacetylase 1. Description: Inhibition of HDAC1 (unknown origin).
Test [4] deals with T2, Protein deacetylase HDAC6 (Homo sapiens, UniProt Q9UBN7).
T2 sequence (Q9UBN7 whole entry): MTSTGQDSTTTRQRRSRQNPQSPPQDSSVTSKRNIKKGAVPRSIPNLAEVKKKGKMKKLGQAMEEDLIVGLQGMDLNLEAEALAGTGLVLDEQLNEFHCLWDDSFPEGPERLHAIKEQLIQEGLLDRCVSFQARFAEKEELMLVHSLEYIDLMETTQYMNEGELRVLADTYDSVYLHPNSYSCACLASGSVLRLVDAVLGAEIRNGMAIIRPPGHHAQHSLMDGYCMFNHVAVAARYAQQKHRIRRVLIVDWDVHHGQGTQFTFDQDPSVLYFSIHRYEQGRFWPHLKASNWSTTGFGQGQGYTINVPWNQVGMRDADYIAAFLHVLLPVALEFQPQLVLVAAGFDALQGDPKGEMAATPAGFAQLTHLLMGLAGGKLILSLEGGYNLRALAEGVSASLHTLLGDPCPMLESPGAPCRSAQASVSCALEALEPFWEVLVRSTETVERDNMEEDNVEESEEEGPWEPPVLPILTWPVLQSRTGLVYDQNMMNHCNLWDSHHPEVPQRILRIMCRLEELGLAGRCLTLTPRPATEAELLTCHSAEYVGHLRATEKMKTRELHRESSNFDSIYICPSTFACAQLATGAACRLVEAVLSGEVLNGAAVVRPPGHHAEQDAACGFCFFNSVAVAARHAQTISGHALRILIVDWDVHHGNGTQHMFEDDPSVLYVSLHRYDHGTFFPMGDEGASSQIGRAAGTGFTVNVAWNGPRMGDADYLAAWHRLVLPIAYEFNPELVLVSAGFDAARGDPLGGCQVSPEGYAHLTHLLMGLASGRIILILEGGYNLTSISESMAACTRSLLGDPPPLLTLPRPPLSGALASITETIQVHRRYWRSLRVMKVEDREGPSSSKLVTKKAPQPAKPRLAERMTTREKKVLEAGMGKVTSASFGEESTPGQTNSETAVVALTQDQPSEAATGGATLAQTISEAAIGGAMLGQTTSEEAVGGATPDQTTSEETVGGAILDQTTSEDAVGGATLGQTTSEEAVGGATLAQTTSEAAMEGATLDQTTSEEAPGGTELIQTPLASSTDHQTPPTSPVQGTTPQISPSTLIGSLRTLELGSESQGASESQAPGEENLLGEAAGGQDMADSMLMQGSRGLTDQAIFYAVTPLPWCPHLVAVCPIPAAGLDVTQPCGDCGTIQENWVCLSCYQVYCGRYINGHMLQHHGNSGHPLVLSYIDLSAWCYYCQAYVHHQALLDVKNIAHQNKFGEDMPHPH
Kind of test: Inhibition of HDAC6 (unknown origin) using acetyl-lysine tripeptide as substrate preincubated for 24 hrs followed by substrate addition and measured after 30 mins by microtiter plate reader analysis.

For test [5], the target named is T2, Protein deacetylase HDAC6. Kind of test: Inhibition of human HDAC6 (unknown origin).

Consider `CN(C)Cc1ccc(S(=O)(=O)n2ccc(/C=C/C(=O)NO)c2)cc1` [RESMINOSTAT], for which the IC50 against Histone deacetylase 1 [1] amounted to 877 nM; on Histone deacetylase 1 [2] it was 43 nM.

In the case of `O=C(NO)c1cnc(NC2(c3ccccc3)CCC(F)(F)CC2)nc1`, the IC50 against Histone deacetylase 1 [3] turned out to be 780 nM; in test [4], 3 nM.

`NCCCNCCCCCC(=O)C(F)(F)F`: the IC50 in test [5] stood at 1400 nM.
